Values after ≈ are worked out from the molar mass of the structure shown.
System: Staphylococcus aureus
Test: Antibacterial against Staphylococcus aureus
Assay type: functional
Conditions: for MIC: Staphylococcus aureus

MIC | SMILES | -logMIC
128 µg/mL (≈ 311 µM) | Fc1ccc(Oc2ccc(-c3noc(-c4ccc(Br)cc4)n3)cc2)cc1 | 1.167
128 µg/mL (≈ 341 µM) | NC(=O)c1ccc(-c2nc(-c3ccc(Oc4ccc(F)cc4)cc3)no2)cc1 | 1.158
128 µg/mL (≈ 303 µM) | FC(F)(F)c1ccc(Oc2ccc(-c3noc(-c4c[nH]c5ncccc45)n3)cc2)cc1 | 1.194
32 µg/mL (≈ 92.4 µM) | Oc1ccc(Oc2ccc(-c3noc(-c4ccc(O)cc4)n3)cc2)cc1 | 2.382
1 µg/mL (≈ 2.45 µM) | Clc1ccc(Oc2ccc(-c3noc(-c4n[nH]cc4Cl)n3)cc2)cc1Cl | 6.01
2 µg/mL (≈ 5.48 µM) | Oc1ccc(-c2nc(-c3ccc(Oc4ccccc4)c(Cl)c3)no2)cc1 | 5.206

The next lines start with the compound.

SMILES | MIC | -logMIC
Nc1c[nH]nc1-c1nc(-c2ccc(Oc3ccc(C(F)(F)F)cc3)cc2)no1 | – | 4.573
Oc1c(F)cc(-c2nc(-c3ccc(Oc4ccc(C(F)(F)F)cc4)cc3)no2)cc1F | – | 5.381
Nc1c[nH]nc1-c1nc(-c2ccc(Oc3ccccc3)cc2)no1 | – | 2.994
Nc1cncc(-c2nc(-c3ccc(Oc4ccc(C(F)(F)F)cc4)cc3)no2)c1 | 128 µg/mL (≈ 321 µM) | 1.135
Fc1ccc(Oc2ccc(-c3noc(-c4cc[nH]c4)n3)cc2)cc1 | 128 µg/mL (≈ 398 µM) | 0.92
COc1ccc(-c2nc(-c3ccc(Br)cc3)no2)cc1 | 128 µg/mL (≈ 387 µM) | 0.951
Cc1nc(-c2ccc(Oc3ccc(C(F)(F)F)cc3)cc2)no1 | 128 µg/mL (≈ 400 µM) | 0.917
O=[N+]([O-])c1c[nH]nc1-c1nc(-c2ccc(Oc3ccc(F)c(F)c3)cc2)no1 | 2 µg/mL (≈ 5.19 µM) | 5.261
O=C(O)c1cccc(Oc2ccc(-c3noc(-c4ccc(O)cc4)n3)cc2)c1 | 64 µg/mL (≈ 171 µM) | 1.766
Oc1ccc(Oc2ccc(-c3noc(-c4ccc(F)cc4)n3)cc2)cc1 | 128 µg/mL (≈ 367 µM) | 1.001
Oc1ccc(-c2nc(-c3ccc(Oc4ccccc4CBr)cc3)no2)cc1 | 8 µg/mL (≈ 18.9 µM) | 3.969
Fc1ccc(-c2nc(-c3ccccc3)no2)cc1 | 128 µg/mL (≈ 533 µM) | 0.63

From ChEMBL document CHEMBL3751781, “Three-dimensional QSAR analysis and design of new 1,2,4-oxadiazole antibacterials” (2016)
